Test results published in US20130158113A1, “METHODS AND COMPOSITIONS FOR TREATING BRAIN CANCER” (Golden Biotechnology Corporation, priority 2011, published 2013).
≈ marks a conversion by molar mass, not a printed value. Where “and” joins values, the source holds several entries; their conditions need not be identical. Equal entries are not always repeated.

Experiments:
[1] = system: SK-N-MC cells; assay: MTT survival assay on SK-N-MC brain cancer cells; type: cell-based; settings: Homo sapiens, 48 hours
Experimental: The NCI anti-cancer drug screen model was adopted to test anti-cancer effect of the exemplary compounds from Example 1. The isolated compound 1 from Example 1 was added into the culture media of brain-cancer cells, SK-N-MC, to test for tumor cell survival by MTT assay.
(§1) MTT assay is commonly used to determine cell proliferation, percent of viable cells, and cytotoxicity. MTT (3-[4,5-dimethylthiazol-2-yl]2,5-diphenyltetrazolium bromide) is a yellow dye, which can be absorbed by the living cells and be reduced to purplish blue formazan crystals by succinate tetrazolium reductase in mitochondria. Formazan formation can therefore be used to assess and determine the survival rate of cells.
SK-N-MC cells were suspended and cultured in 10% fetal bovine serum (Life Technologies Inc.) culture medium containing 1% penicillin and 1% streptomycin. The cells were incubated under 5% CO2, 37° C. for 24 hours. After cell proliferation, the cells were washed once with PBS, treated with the trypsin-EDTA, and then centrifuged at 1,200 rpm for 5 minutes to separate cells from supernatant. The cells were re-suspended in fresh culture medium (10 mL) and placed in 96 well plates.
(§2) To each of the 96 well plates containing SK-N-MC, 0.003, 0.01, 0.03, 0.1, and 0.3 μg/ml of compound 1 were add. The 96 well plates were incubated at 37° C., 5% CO2 for 48 hours. Subsequently, in the dark environment to each well of the plates were added 2.5 mg/ml of MTT. The reaction was terminated by addition of 100 μl of lysis buffer after 4 hours. The survival rate of cells was calculated based on the measurement of absorption at the 570 nm wavelength by enzyme immunoassay analyzer. The half maximal inhibitory concentration (IC50) values of compound 1 on SK-N-MC was 0.05 μg/mL. Similarly, another exemplary cancer cell lines, U373MG, were used.

[2] = Determination of Compound 1 in mice brain by LC/MS/MS; type: in vivo; settings: male CD-1 mice fed 1 mg/g in 0.5% methylcellulose, brain removed after 15 minute; individual brains 1-3
Experimental: The concentration of compound 1 in brain samples was analyzed by LC/MS/MS spectrometer. Experiments were performed on male CD-1 derived mice weighing 24±2 g (Biolasco Taiwan). The CD-1 mice were fed with 1 mg/g Compound 1 in 0.5% methylcellulose (concentration is 2 mg/mL). The brains of the CD-1 mice were removed after 15 minute and extracted with CH3CN and then centrifuged to prepare supernatant that was analyzed by LC/MS/MS.

[3] = system: U373MG; assay: MTT survival assay on U373MG cancer cells; type: cell-based; settings: Homo sapiens, U373 MG, read-out: half maximal inhibitory concentration (IC50)
Source text: as §1, §2

## COC1=C(OC)C(O)C(C/C=C(\C)CC/C=C(\C)CCC=C(C)C)C(C)C1=O (centres unmarked) [Compound 1, 4-hydroxy-2,3-dimethoxy-6-methyl-5-(3,7,11-trimethyldodeca-2,6,10-trienyl)cyclohex-2-enone]
[1]; 0.003 μg/ml, read-out: Cell viability rate mean
  viability at 0.003 µg/mL: 86.3%
[1]; 0.01 μg/ml, read-out: Cell viability rate mean
  viability at 0.01 µg/mL: 76.6%
[1]; 0.03 μg/ml, read-out: Cell viability rate mean
  viability at 0.03 µg/mL: 63.2%
[1]; 0.1 μg/ml, read-out: Cell viability rate mean
  viability at 0.1 µg/mL: 32.9%
[1]; 0.3 μg/ml, read-out: Cell viability rate mean
  viability at 0.3 µg/mL: 23%
[1]; read-out: half maximal inhibitory concentration (IC50)
  IC50: 0.05 µg/mL (≈ 0.128 µM)
[2]
  Brain concentration: 30.13 µg/g and 7.59 µg/g and 24.28 µg/g
[3]
  IC50: 5.88 µg/mL (≈ 15.1 µM)
